Measurements as given in publication PMC11019538, “Biophysics-Guided Lead Discovery of HBV Capsid Assembly Modifiers” (ACS Infectious Diseases, 2024).
pEC50: −log10 of the molar value. Like-named read-outs stand apart in the source and are kept apart here.

Legend:
[1] = test system: human peripheral blood mononuclear (PBM) cells; test: MTT cytotoxicity, PBM cells; format: cell-based
Protocol: (§1) Human peripheral blood mononuclear (PBM), T lymphoblast CEM-CCRF (herein referred to as CEM cells), African green monkey kidney (Vero), or human liver carcinoma (HepG2) cells were tested via MTT assay using the CellTiter 96 Non-Radioactive Cell Proliferation (Promega) kit as previously described.[63]

[2] = test system: T lymphoblast CEM-CCRF (CEM) cells; test: MTT cytotoxicity, CEM cells; format: cell-based, human
Protocol: as §1

[3] = test system: African green monkey kidney (Vero) cells; test: MTT cytotoxicity, Vero cells; format: cell-based; conditions: Vero cells
Protocol: as §1

[4] = test system: human liver carcinoma (HepG2) cells; test: MTT cytotoxicity, HepG2 cells; format: cell-based; conditions: HepG2 cells
Protocol: as §1

[5] = test system: HBV DNA replication in HepAD38 cells; test: HBV DNA replication inhibition assay in HepAD38 cells (7 days, PCR of supernatant DNA); format: cell-based, hepatitis B virus; conditions: HepAD38 cells; for HBV DNA inhibition (%) at 10 µM: first round of selected compounds
Protocol: HepAD38 cells were seeded at 50,000 cells/well in collagen-coated 96-well plates. […] The experiment lasted 7 days. On day 7, total DNA was purified from the supernatant using a commercially available kit (DNeasy 96 Blood & Tissue kit, Qiagen). The HBV DNA was amplified in a polymerase chain reaction assay using LightCycler 480 II (Roche), as previously described.[63] All samples were tested in duplicate.

[6] = trial 1, read-out: EC50, trial 1
[7] = trial 2, read-out: EC50, trial 2

Structure (SMILES) | CC50 [1] | CC50 [2] | CC50 [3] | CC50 [4] | HBV DNA inhibition (%) at 10 µM [5] | percent cytotoxicity (cell growth inhibition) at 100 µM ([1]; 100 µM) | % HBV DNA Inh. at 10 μM, trial 1 ([5]; trial 1) | % HBV DNA Inh. at 10 μM, trial 2 ([5]; trial 2) | pEC50 [5, 6] | pEC50 [5, 7] | % cytotoxicity (MTT) at 100 µM ([3]; 100 µM) | % cytotoxicity at 100 µM (MTT), CEM cells ([2]; 100 µM)
CC(O)(c1ccccc1)C(c1ccccc1)C1CCCCN1 (stereo not shown) [GT-4] | > 100 µM | > 100 µM | > 100 µM | > 100 µM | < 1% |  |  |  |  |  |  | 
O=C(NCCc1ccccc1)c1cccnc1 [GT-13] | > 100 µM | > 100 µM | > 100 µM | > 100 µM | < 1% |  |  |  |  |  |  | 
NCc1ccc(-c2ccccc2F)o1 [GT-19] | > 100 µM | > 100 µM | > 100 µM | > 100 µM | < 1% |  |  |  |  |  |  | 
COc1ccc(F)c(Cn2cnc(-c3ccccc3)c2-c2c[nH]cn2)c1F [GT-38] | > 100 µM | 62 µM | 48 µM | 24 µM |  | 24% | 45% | 45% | < 5.00 | < 5.00 |  | 
Nc1ccn([C@@H]2CS[C@H](CO)O2)c(=O)n1 [3TC, reference compound] |  |  |  |  | 97% |  | 82% |  |  |  |  | 
Oc1c(C(Nc2ccccc2)c2ccccc2)ccc2cccnc12 (stereo not shown) [GT-48] | 20 µM | 3.4 µM | 4.5 µM | 34 µM |  |  | < 1% | < 1% | < 5.00 | < 5.00 |  | 
Cc1cc(-c2ccccc2)nc(C#N)c1C#N [GT-27] | 14.7 µM | 4 µM | 27.3 µM | 41.7 µM | < 1% |  |  |  |  |  |  | 
NCc1cccc(Oc2ccccc2)c1 [GT-21] | > 100 µM | 18.2 µM | 49.6 µM | > 100 µM | < 1% |  |  |  |  |  |  | 
CC(=O)N1CCC(NCc2nc(-c3ccc(C)cc3)c(-c3ccccn3)[nH]2)CC1 [GT-44] | 64 µM | 63 µM | > 100 µM | 70 µM |  |  | 37% | 37% | < 5.00 | < 5.00 | 54% | 
O=C(NCc1cccnc1)C1CCNCC1 [GT-23] | > 100 µM | > 100 µM | > 100 µM | > 100 µM | < 1% |  |  |  |  |  |  | 
Cc1ccc(CC#N)c(-c2c(CC#N)ccc(C)c2C)c1C [GT-9] | > 100 µM | > 100 µM | > 100 µM | 55.3 µM | 34.6% |  |  |  |  |  |  | 
COc1ccc(-c2cc(C(=O)Oc3cccc(-c4cnc5ccccc5n4)c3)c3ccccc3n2)cc1 [GT-31] | 86 µM | > 100 µM | 97 µM | 42 µM |  |  | < 1% | < 1% | < 5.00 | < 5.00 |  | 36%
Fc1ccccc1CNCc1ccccn1 [GT-14] | > 100 µM | > 100 µM | > 100 µM | > 100 µM | < 1% |  |  |  |  |  |  | 
CNc1cc(C#N)nc(-c2ccccc2)n1 [GT-28] | 24 µM | 63.8 µM | > 100 µM | > 100 µM | < 1% |  |  |  |  |  |  | 
NCc1cccc(-c2ccccn2)c1 [GT-24] | > 100 µM | 11.3 µM | > 100 µM | > 100 µM | < 1% |  |  |  |  |  |  | 
C=CC1CN2CCC1CC2C(O)c1ccnc2ccc(OC)cc12 (stereo not shown) [GT-1] |  |  |  |  | < 1% |  |  |  |  |  |  | 
